Source: patent publication US20240209028A1, “CNP COMPOUNDS” (priority 2022, published 2024)
Starred links: 1 amine or outer side, 2 acyl side, 3 side chain; linkers in the order of their positions; H or OH if unused. Positions of bridges follow the written chain, without caps; N, C: chain ends. Residues, ends and D or L forms follow the SMILES beside them. *: point of attachment. C18 diacid = O=C(O)CCCCCCCCCCCCCCCCC(=O)*; γGlu = O=C(O)[C@H](CCC(=O)[*:2])N[*:1]; AEEA = NCCOCCOCC(=O)O

Target: T1, human natriuretic peptide receptor 2 (hNPR2) (Homo sapiens, UniProt P20594)
T1 construct: expressed in transfected cells; host or cells: HEK293 (ATCC CRL-1573), clone 35, co-transfected with pGloSensor-42F
T1 sequence (P20594 23-1047): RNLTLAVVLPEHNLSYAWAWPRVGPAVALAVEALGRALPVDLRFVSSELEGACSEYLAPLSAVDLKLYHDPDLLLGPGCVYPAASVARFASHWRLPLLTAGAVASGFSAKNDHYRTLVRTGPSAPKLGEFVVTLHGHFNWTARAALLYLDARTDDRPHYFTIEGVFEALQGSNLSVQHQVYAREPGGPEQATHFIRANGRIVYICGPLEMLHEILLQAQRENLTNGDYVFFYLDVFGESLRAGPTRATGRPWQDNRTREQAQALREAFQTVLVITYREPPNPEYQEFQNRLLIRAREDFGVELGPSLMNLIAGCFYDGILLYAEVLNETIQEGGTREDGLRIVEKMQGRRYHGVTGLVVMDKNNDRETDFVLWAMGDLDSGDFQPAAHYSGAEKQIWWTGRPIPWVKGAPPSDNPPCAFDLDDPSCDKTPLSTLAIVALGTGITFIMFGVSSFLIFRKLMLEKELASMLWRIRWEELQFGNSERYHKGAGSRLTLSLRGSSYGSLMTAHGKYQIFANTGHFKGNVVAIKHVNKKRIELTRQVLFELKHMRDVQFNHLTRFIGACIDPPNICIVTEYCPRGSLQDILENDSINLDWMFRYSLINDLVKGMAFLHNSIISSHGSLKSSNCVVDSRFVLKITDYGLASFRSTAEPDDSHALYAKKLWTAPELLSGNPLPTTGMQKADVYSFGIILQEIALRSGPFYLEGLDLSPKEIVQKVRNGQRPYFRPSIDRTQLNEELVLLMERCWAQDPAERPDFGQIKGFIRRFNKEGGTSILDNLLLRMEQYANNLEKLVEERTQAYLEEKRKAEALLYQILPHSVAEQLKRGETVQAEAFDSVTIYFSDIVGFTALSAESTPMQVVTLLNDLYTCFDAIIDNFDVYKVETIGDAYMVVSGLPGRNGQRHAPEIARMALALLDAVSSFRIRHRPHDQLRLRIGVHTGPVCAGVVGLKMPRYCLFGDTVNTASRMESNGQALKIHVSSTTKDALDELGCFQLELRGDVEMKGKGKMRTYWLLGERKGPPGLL
Test: In vitro hNPR2 activity assay (cGMP GloSensor reporter, HEK293)
Assay type: cell-based
Details: for hNPR2 0% HSA. [EC50% rel CNP]: potency relative to CNP22 (0065); for EC50: 0% HSA, HEK293-hNPR2/GloSensor cells
Method in brief: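 Potency is the EC50 from a four-parameter logistic fit, also expressed relative to the in-plate CNP22 control (×100), with at least two replicates. Compounds (ten concentrations, […], HSA-free diluent with 1% OVA, 0.01% Tween20) were incubated 30 min at 37 °C on HEK293 cells co-expressing hNPR2 and a GloSensor cGMP luciferase. Luminescence detected with Bright-Glo.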

| Compound | hNPR2 0% HSA. [EC50% rel CNP] | EC50 |
| --- | --- | --- |
| CC[C@H](C)[C@@H]1NC(=O)[C@H](CCCNC(=N)N)NC(=O)[C@H](CC(=O)O)NC(=O)[C@H](CC(C)C)NC(=O)[C@@H]2CCCN2C(=O)[C@H](CC(C)C)NC(=O)CNC(=O)[C@H](Cc2ccccc2)NC(=O)[C@@H](NC(=O)CNC(=O)[C@H](CCC(N)=O)NC(=O)[C@H](CO)NC(=O)[C@H](CC(C)C)NC(=O)CNC(=O)[C@H](CCCCN)NC(=O)[C@H](CCCCN)NC(=O)[C@H](CCC(N)=O)NC(=O)[C@H](C)NC(=O)CNC(=O)[C@H](CCC(=O)O)NC(=O)[C@H](Cc2ccc(O)cc2)NC(=O)[C@H](CCCCN)NC(=O)[C@H](CCCNC(=N)N)NC(=O)[C@H](C)NC(=O)[C@H](CCC(N)=O)NC(=O)[C@@H]2CCCN2C(=O)[C@H](Cc2c[nH]cn2)NC(=O)[C@H](CCC(=O)O)NC(=O)[C@H](CCC(N)=O)NC(=O)COCCOCCNC(=O)COCCOCCNC(=O)CC[C@H](NC(=O)CC[C@H](NC(=O)CCCCCCCCCCCCCCCCC(=O)O)C(=O)O)C(=O)O)CSSC[C@@H](C(=O)O)NC(=O)CNC(=O)[C@H](CC(C)C)NC(=O)CNC(=O)[C@H](CO)NC(=O)[C@H](CC(C)C)NC(=O)[C@H](CO)NC(=O)CNC1=O [compound 1396] ({C18 diacid-γGlu-γGlu-AEEA-AEEA}-QEHPQARKYEGAQKKGLSQGCFGLPLDRIGSLSGLGC-OH; disulfide 21-37) | 43.1% |  |
| CC[C@H](C)[C@@H]1NC(=O)[C@H](CCCNC(=N)N)NC(=O)[C@H](CCC(=O)O)NC(=O)[C@H](CC(C)C)NC(=O)[C@H](CCCCN)NC(=O)[C@H](CC(C)C)NC(=O)CNC(=O)[C@H](Cc2ccccc2)NC(=O)[C@@H](NC(=O)CNC(=O)[C@H](CCCCN)NC(=O)[C@H](CO)NC(=O)[C@H](CC(C)C)NC(=O)CNC(=O)[C@H](Cc2c[nH]cn2)NC(=O)[C@H](Cc2c[nH]cn2)NC(=O)[C@H](CCC(N)=O)NC(=O)[C@H](C)NC(=O)CNC(=O)[C@H](Cc2c[nH]cn2)NC(=O)[C@H](Cc2ccc(O)cc2)NC(=O)COCCOCCNC(=O)COCCOCCNC(=O)CC[C@H](NC(=O)CCCCCCCCCCCCCCCCC(=O)O)C(=O)O)CSSC[C@@H](C(=O)O)NC(=O)CNC(=O)[C@H](CC(C)C)NC(=O)CNC(=O)[C@H](CO)NC(=O)[C@H](CC(C)C)NC(=O)[C@H](CO)NC(=O)CNC1=O [compound 1322] ({C18 diacid-γGlu-AEEA-AEEA}-YHGAQHHGLSKGCFGLKLERIGSLSGLGC-OH; disulfide 13-29; C-terminus assumed) | 1.9% | 4.73 nM |
| CC[C@H](C)[C@@H]1NC(=O)[C@H](CCCNC(=N)N)NC(=O)[C@H](CC(=O)O)NC(=O)[C@H](CC(C)C)NC(=O)[C@@H]2CCCN2C(=O)[C@H](CC(C)C)NC(=O)CNC(=O)[C@H](Cc2ccccc2)NC(=O)[C@@H](NC(=O)CNC(=O)[C@H](CCCCN)NC(=O)[C@H](CO)NC(=O)[C@H](CC(C)C)NC(=O)CNC(=O)[C@H](CCCCN)NC(=O)[C@H](CCCCN)NC(=O)[C@H](CCC(N)=O)NC(=O)[C@H](C)NC(=O)CNC(=O)[C@H](CCC(=O)O)NC(=O)[C@H](Cc2ccc(O)cc2)NC(=O)[C@H](CCCCN)NC(=O)[C@H](CCCNC(=N)N)NC(=O)[C@H](C)NC(=O)CC[C@H](NC(=O)CC[C@H](NC(=O)CC[C@H](NC(=O)CC[C@H](NC(=O)CCCCCCCCCCCCCCCCC(=O)O)C(=O)O)C(=O)O)C(=O)O)C(=O)O)CSSC[C@@H](C(=O)O)NC(=O)CNC(=O)[C@H](CC(C)C)NC(=O)CNC(=O)[C@H](CO)NC(=O)[C@H](CC(C)C)NC(=O)[C@H](CO)NC(=O)CNC1=O [compound 1385] ({C18 diacid-γGlu-γGlu-γGlu-γGlu}-ARKYEGAQKKGLSKGCFGLPLDRIGSLSGLGC-OH; disulfide 16-32) | 30.7% |  |
| CC[C@H](C)[C@@H]1NC(=O)[C@H](CCCNC(=N)N)NC(=O)[C@H](CC(=O)O)NC(=O)[C@H](CC(C)C)NC(=O)[C@H](CCCCN)NC(=O)[C@H](CC(C)C)NC(=O)CNC(=O)[C@H](Cc2ccccc2)NC(=O)[C@@H](NC(=O)CNC(=O)[C@H](CCC(N)=O)NC(=O)[C@H](CO)NC(=O)[C@H](CC(C)C)NC(=O)CNC(=O)[C@H](Cc2c[nH]cn2)NC(=O)[C@H](Cc2c[nH]cn2)NC(=O)[C@H](CCC(N)=O)NC(=O)[C@H](C)NC(=O)CNC(=O)[C@H](CCCCN)NC(=O)[C@H](Cc2ccc(O)cc2)NC(=O)COCCOCCNC(=O)COCCOCCNC(=O)CC[C@H](NC(=O)CCCCCCCCCCCCCCCCC(=O)O)C(=O)O)CSSC[C@@H](C(=O)O)NC(=O)CNC(=O)[C@H](CC(C)C)NC(=O)CNC(=O)[C@H](CO)NC(=O)[C@H](CC(C)C)NC(=O)[C@H](CO)NC(=O)CNC1=O [compound 1340] ({C18 diacid-γGlu-AEEA-AEEA}-YKGAQHHGLSQGCFGLKLDRIGSLSGLGC-OH; disulfide 13-29) | 44.4% | 0.18 nM |
| {C18 diacid-γGlu-AEEA-AEEA}-GQAPGQAPGQAPGQAPGQAPGLSKGCFGLKLDRIGSMSGLGC-OH (disulfide 26-42) [compound 0230] | 0.4% |  |
| CC[C@H](C)[C@@H]1NC(=O)[C@H](CCCNC(=N)N)NC(=O)[C@H](CC(=O)O)NC(=O)[C@H](CC(C)C)NC(=O)[C@@H]2CCCN2C(=O)[C@H](CC(C)C)NC(=O)CNC(=O)[C@H](Cc2ccccc2)NC(=O)[C@@H](NC(=O)CNC(=O)[C@H](CCCCN)NC(=O)[C@H](CO)NC(=O)[C@H](CC(C)C)NC(=O)CNC(=O)[C@H](CCCCN)NC(=O)[C@H](CCC(=O)O)NC(=O)[C@H](CCC(N)=O)NC(=O)[C@H](C)NC(=O)CNC(=O)[C@H](CCC(=O)O)NC(=O)[C@H](Cc2ccc(O)cc2)NC(=O)COCCOCCNC(=O)COCCOCCNC(=O)CC[C@H](NC(=O)CCCCCCCCCCCCCCCCC(=O)O)C(=O)O)CSSC[C@@H](C(=O)O)NC(=O)CNC(=O)[C@H](CC(C)C)NC(=O)CNC(=O)[C@H](CO)NC(=O)[C@H](CC(C)C)NC(=O)[C@H](CO)NC(=O)CNC1=O [compound 1226] ({C18 diacid-γGlu-AEEA-AEEA}-YEGAQEKGLSKGCFGLPLDRIGSLSGLGC-OH; disulfide 13-29) | 7.5% |  |
| CC[C@H](C)[C@@H]1NC(=O)[C@H](CCCNC(=N)N)NC(=O)[C@H](CC(=O)O)NC(=O)[C@H](CC(C)C)NC(=O)[C@@H]2CCCN2C(=O)[C@H](CC(C)C)NC(=O)CNC(=O)[C@H](Cc2ccccc2)NC(=O)[C@@H](NC(=O)CNC(=O)[C@H](CCCCN)NC(=O)[C@H](CO)NC(=O)[C@H](CC(C)C)NC(=O)CNC(=O)[C@H](CCCCN)NC(=O)[C@H](CCCCN)NC(=O)[C@H](CCC(N)=O)NC(=O)[C@H](C)NC(=O)CNC(=O)[C@H](CCCCN)NC(=O)[C@H](Cc2ccc(O)cc2)NC(=O)[C@H](CCCCN)NC(=O)[C@H](CCCNC(=N)N)NC(=O)[C@H](C)NC(=O)COCCOCCNC(=O)COCCOCCNC(=O)COCCOCCNC(=O)COCCOCCNC(=O)CC[C@H](NC(=O)CC[C@H](NC(=O)CC[C@H](NC(=O)CC[C@H](NC(=O)CC[C@H](NC(=O)CCCCCCCCCCCCCCCCC(=O)O)C(=O)O)C(=O)O)C(=O)O)C(=O)O)C(=O)O)CSSC[C@@H](C(=O)O)NC(=O)CNC(=O)[C@H](CC(C)C)NC(=O)CNC(=O)[C@H](CO)NC(=O)[C@H](CC(C)C)NC(=O)[C@H](CO)NC(=O)CNC1=O [compound 1462] ({C18 diacid-γGlu-γGlu-γGlu-γGlu-γGlu-AEEA-AEEA-AEEA-AEEA}-ARKYKGAQKKGLSKGCFGLPLDRIGSLSGLGC-OH; disulfide 16-32) | 106.6% |  |
| CC[C@H](C)[C@@H]1NC(=O)[C@H](CCCNC(=N)N)NC(=O)[C@H](CC(=O)O)NC(=O)[C@H](CC(C)C)NC(=O)[C@@H]2CCCN2C(=O)[C@H](CC(C)C)NC(=O)CNC(=O)[C@H](Cc2ccccc2)NC(=O)[C@@H](NC(=O)CNC(=O)[C@H](CCC(N)=O)NC(=O)[C@H](CO)NC(=O)[C@H](CO)NC(=O)CNC(=O)[C@H](CCCCN)NC(=O)[C@H](CCCCN)NC(=O)[C@H](CCC(N)=O)NC(=O)[C@H](C)NC(=O)CNC(=O)[C@@H]2CCCN2C(=O)[C@H](C)NC(=O)[C@H](CCC(N)=O)NC(=O)CNC(=O)[C@@H]2CCCN2C(=O)[C@H](C)NC(=O)[C@H](CCC(N)=O)NC(=O)CNC(=O)COCCOCCNC(=O)COCCOCCNC(=O)CC[C@H](NC(=O)CCCCCCCCCCCCCCCCC(=O)O)C(=O)O)CSSC[C@@H](C(=O)O)NC(=O)CNC(=O)[C@H](CC(C)C)NC(=O)CNC(=O)[C@H](CO)NC(=O)[C@H](CC(C)C)NC(=O)[C@H](CO)NC(=O)CNC1=O [compound 1458] ({C18 diacid-γGlu-AEEA-AEEA}-GQAPGQAPGAQKKGSSQGCFGLPLDRIGSLSGLGC-OH; disulfide 19-35) | 93.6% |  |
